Laboratory results reported in patent EP2012764B1, “PHARMACEUTICAL COMBINATION COMPRISING 3-(3-DIMETHYLAMINO-1-ETHYL-2-METHYL-PROPYL) -PHENOL AND PARACETAMOL” (Grünenthal GmbH, priority 2006, dated 2007).

Tested on: inflammatory pain
Assay: Randall-Selitto test in rats (carrageenin-induced paw oedema, pressure at vocalisation, %MPE; isobolographic analysis)
Type: in vivo, rat
Description: The weight ratios of the components (a) and (b) that will lead to a supra-additive effect (synergistic effect) of the inventive pharmaceutical composition may be determined via the test of Randall and Selitto as described in Arch. Int. Pharmacodyn., 1957, 111: 409 to 419, which is a model for inflammatory pain. The respective part of the literature is hereby incorporated by reference and forms part of the present disclosure.
By means of injection of 0.1 ml of Carrageenin-suspension ventrally into a hind paw of a rat an oedema is induced, on which pain is generated 4 hours later by continuously increasing pressure with a stamp (2 mm tip diameter). The antinociceptive and antihyperalgesic activity of the tested substance is determined at different points in time after administration of the substance. The measured value to be determined and at the same time also the end point of the pain test is the pressure at which the vocalisation reaction of the rat occurs. The percentage maximum possible effect (%MPE) is calculated. The maximum pressure of the stamp is 250 g. The group size is n = 10.
The interactions studies presented herein were performed using equieffective doses of the two components, calculated from the ratio of the respective ED50 values of the components if administered alone.
The application route was intravenous (i.v.) for (1R,2R)-3-(3-Dimethylamino-1-ethyl-2-methyl-propyl)-phenol (A) and intraperitoneal (i.p.) for Paracetamol. […] According to their respective timepoint of peak effect, (1R,2R)-3-(3-Dimethylamino-1-ethyl-2-methyl-propyl)-phenol was applied 15 min and Paracetamol 120 min before timepoint of measurement of the interaction-experiments (i. e. Paracetamol was applied 105 min before (1R,2R)-3-(3-Dimethylamino-1-ethyl-2-methyl-propyl)-phenol, respectively). Thus, the time point of ED50 calculation of the combination corresponds to the timepoint of the peak effect of the respective compound.

Compound | timepoint of peak effect (Paracetamol alone, i.p.) | ED50 (confidence interval) (Paracetamol alone, i.p., 120 min p. appl. (peak effect), rat, n = 10, 120 min) | ED50 (Rattus norvegicus, ip, 2 h, Paracetamol alone, i.p., 120 min p. appl. (peak effect), rat, n = 10, read-out: ED50 (confidence interval)) | timepoint of peak effect (A alone, i.v., timepoint of first measurement)
CC(=O)Nc1ccc(O)cc1 [Paracetamol] | 120 min p. appl. | 189,9 (181,3-198,4) mg/kg | 190 mg/kg | 
CC[C@@H](c1cccc(O)c1)[C@@H](C)CN(C)C [A, (1R,2R)-3-(3-Dimethylamino-1-ethyl-2-methyl-propyl)-phenol] |  |  |  | 15 min p. appl.
